Source: ChEMBL document CHEMBL1152752, “Chemical components and its antioxidant properties in vitro: an edible marine brown alga, Ecklonia cava” (Bioorg Med Chem, 2009)
Calls of active or inactive are those of the source. The rule behind the calls is not given here.

Legend:
[1] = Antioxidant activity assessed as Fenton system generated hydroxyl radical scavenging activity by ESR spectrometer; type: functional
[2] = tested on: Radical scavenging activity; assay: Antioxidant activity assessed as DPPH radical scavenging activity; type: functional
[3] = Antioxidant activity assessed as superoxide radical scavenging activity; type: functional
[4] = Antioxidant activity assessed as […] generated peroxyl radical scavenging formation by ESR spectrometer; type: functional
MRC5 = assay: Cytotoxicity against human MRC5 cells at 100 uM after 24 hrs by MTT assay; type: cell-based; conditions: mrc5, 24 h
RAW264.7 [5] = assay: Cytotoxicity against mouse RAW264.7 cells at 100 uM after 24 hrs by MTT assay; type: functional, cell-based
HL-60 = assay: Cytotoxicity against human HL60 cells at 100 uM after 24 hrs by MTT assay; type: functional, cell-based
RAW264.7 [6] = assay: Antioxidant activity against mouse RAW264.7 cells assessed as reduction of ROS production measured by fluorescent dichlorofluorescein using DCFH-DA substrate; type: functional, cell-based
RAW264.7 [7] = assay: Antioxidant activity against mouse RAW264.7 cells assessed as reduction of ROS production after 200 mins measured by fluorescent dichlorofluorescein using DCFH-DA substrate; type: functional, cell-based; conditions: TDE = time-dependent effect
RAW264.7 [8] = assay: Inhibition of Fe(2+)/H2O2-generated hydroxyl radical induced membrane protein oxidation in mouse RAW264.7 cells at 1 uM to 50 uM relative to control; type: functional
RAW264.7 [9] = assay: Antioxidant activity against mouse RAW264.7 cells assessed as reduction of ROS production at 1 uM after 200 mins measured by fluorescent dichlorofluorescein using DCFH-DA substrate; type: functional, cell-based
RAW264.7 [10] = assay: Antioxidant activity against mouse RAW264.7 cells assessed as reduction of ROS production at 50 uM after 200 mins measured by fluorescent dichlorofluorescein using DCFH-DA substrate; type: functional, cell-based
RAW264.7 [11] = assay: Antioxidant activity against mouse RAW264.7 cells assessed as reduction of ROS production at 50 uM after 210 mins measured by fluorescent dichlorofluorescein using DCFH-DA substrate; type: functional; set-up: scale not given: the % may be the effect or the level left
RAW264.7 [12] = assay: Increase in intracellular GSH level in mouse RAW264.7 cells assessed as monobromobimane-GSH fluorescence intensity at 20 uM after 120 mins; type: functional, cell-based
[13] = target: T1, Myeloperoxidase (Homo sapiens) (UniProt P05164); assay: Inhibition of MPO activity in TNF-alpha-stimulated human HL60 cells measured enzyme activity per 10^6 cells by spectrophotometrically; type: cell-based; conditions: HL-60
T1 sequence (whole entry): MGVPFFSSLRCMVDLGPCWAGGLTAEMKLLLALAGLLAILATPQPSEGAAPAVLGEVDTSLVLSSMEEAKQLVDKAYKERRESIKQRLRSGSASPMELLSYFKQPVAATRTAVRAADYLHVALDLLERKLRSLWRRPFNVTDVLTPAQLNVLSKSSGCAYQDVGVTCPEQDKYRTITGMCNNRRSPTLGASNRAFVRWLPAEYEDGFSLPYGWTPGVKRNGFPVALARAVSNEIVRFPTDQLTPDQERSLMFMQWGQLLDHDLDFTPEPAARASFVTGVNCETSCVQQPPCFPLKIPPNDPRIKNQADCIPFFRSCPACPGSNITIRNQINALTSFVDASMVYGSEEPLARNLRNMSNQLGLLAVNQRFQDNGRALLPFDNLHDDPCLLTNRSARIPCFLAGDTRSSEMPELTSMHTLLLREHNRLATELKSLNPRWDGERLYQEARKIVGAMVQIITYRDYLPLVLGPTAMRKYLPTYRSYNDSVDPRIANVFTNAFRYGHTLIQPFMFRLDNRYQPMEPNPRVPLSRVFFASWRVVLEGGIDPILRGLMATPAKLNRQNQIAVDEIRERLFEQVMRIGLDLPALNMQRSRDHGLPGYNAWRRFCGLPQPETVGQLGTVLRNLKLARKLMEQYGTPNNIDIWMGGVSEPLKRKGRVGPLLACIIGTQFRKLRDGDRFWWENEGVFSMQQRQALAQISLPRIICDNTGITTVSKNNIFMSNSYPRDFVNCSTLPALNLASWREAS

[14] = target: T1, Myeloperoxidase (Homo sapiens); assay: Inhibition of MPO activity in TNF-alpha-stimulated human HL60 cells measured enzyme activity per 10^6 cells at 10 uM by spectrophotometrically; type: cell-based; conditions: HL-60
[15] = target: T1, Myeloperoxidase (Homo sapiens); assay: Inhibition of MPO activity in TNF-alpha-stimulated human HL60 cells measured enzyme activity per 10^6 cells at 50 uM by spectrophotometrically; type: cell-based; conditions: HL-60

Structure (SMILES) | IC50 [1] | IC50 [2] | IC50 [3] | IC50 [4] | Activity (MRC5) | Activity (RAW264.7 [5]) | Activity (HL-60) | Activity (RAW264.7 [6]) | Activity (RAW264.7 [7]) | Activity (RAW264.7 [8]) | Activity (RAW264.7 [9]) | Activity (RAW264.7 [10]) | Activity (RAW264.7 [11]) | inhibition (INH) (RAW264.7 [8]) | Activity (RAW264.7 [12]) | Activity [13] | Activity [14] | Activity [15]
Oc1cc(O)cc(Oc2c(O)cc(O)c3c2Oc2c(O)cc(Oc4c(O)cc(O)cc4O)cc2O3)c1 | 39.6 µM | 18.6 µM | 21.9 µM | 22.7 µM | Non-toxic | inactive | inactive | Dose-dependent effect | tde | Active | – | – | – | – | – | – | – | –
Oc1cc(O)cc(Oc2c(O)cc(O)c3c2Oc2c(O)cc(O)c(-c4c(O)cc(O)c5c4Oc4c(O)cc(O)c(Oc6cc(O)cc(O)c6)c4O5)c2O3)c1 | 29.7 µM | 8.69 µM | 15.9 µM | 17.1 µM | Non-toxic | inactive | inactive | Dose-dependent effect | tde | – | Active | Active | 83.58% | 67.3% | Active | Dose-dependent effect | 0.53 IU | 0.47 IU
Oc1cc(O)cc(Oc2c(O)cc(O)c3c2Oc2c(O)cc(Oc4c(O)cc(Oc5c(O)cc(O)c6c5Oc5c(O)cc(O)cc5O6)cc4O)cc2O3)c1 [DIECKOL] | 28.6 µM | 8.28 µM | 16.2 µM | 14.5 µM | Non-toxic | inactive | inactive | Dose-dependent effect | tde | – | Active | Active | 84.27% | 70.5% | Active | Dose-dependent effect | 0.51 IU | 0.45 IU
Oc1cc(O)cc(Oc2c(O)cc(O)c3c2Oc2c(O)cc(O)cc2O3)c1 [ECKOL] | 51.8 µM | 22.9 µM | 26.5 µM | 28.4 µM | Non-toxic | inactive | inactive | – | – | – | – | – | – | – | – | – | – | –
Oc1cc(O)c(Oc2cc(O)cc(O)c2Oc2cc(O)cc(O)c2-c2c(O)cc(O)cc2O)c(O)c1 [FUCODIPHLOROETHOL G] | 33.5 µM | 14.7 µM | 18.6 µM | 18.1 µM | Non-toxic | inactive | inactive | Dose-dependent effect | tde | – | – | Active | 75.6% | – | Active | – | – | –
Oc1cc(O)cc(Oc2c(O)cc(O)c3c2Oc2c(O)cc4oc5c(Oc6cc(O)cc(O)c6)c(O)cc(O)c5c4c2O3)c1 [PHLOROFUCOFUROECKOL A] | 39.2 µM | 17.7 µM | 21.6 µM | 21.4 µM | Non-toxic | inactive | inactive | Dose-dependent effect | tde | Active | – | – | – | – | – | – | – | –
Oc1cc(O)cc(O)c1 [PHLOROGLUCINOL] | 392 µM | – | 115 µM | 129 µM | Non-toxic | inactive | inactive | – | – | – | – | – | – | – | – | – | – | –
